Laboratory results taken from ChEMBL document CHEMBL5291721, “A preclinical secondary pharmacology resource illuminates target-adverse drug reaction associations of marketed drugs” (Nat Commun, 2023).

Tests used:
[1] = molecular target: T1, Alpha-2A adrenergic receptor (Homo sapiens, UniProt P08913)
T1 sequence (P08913 whole entry): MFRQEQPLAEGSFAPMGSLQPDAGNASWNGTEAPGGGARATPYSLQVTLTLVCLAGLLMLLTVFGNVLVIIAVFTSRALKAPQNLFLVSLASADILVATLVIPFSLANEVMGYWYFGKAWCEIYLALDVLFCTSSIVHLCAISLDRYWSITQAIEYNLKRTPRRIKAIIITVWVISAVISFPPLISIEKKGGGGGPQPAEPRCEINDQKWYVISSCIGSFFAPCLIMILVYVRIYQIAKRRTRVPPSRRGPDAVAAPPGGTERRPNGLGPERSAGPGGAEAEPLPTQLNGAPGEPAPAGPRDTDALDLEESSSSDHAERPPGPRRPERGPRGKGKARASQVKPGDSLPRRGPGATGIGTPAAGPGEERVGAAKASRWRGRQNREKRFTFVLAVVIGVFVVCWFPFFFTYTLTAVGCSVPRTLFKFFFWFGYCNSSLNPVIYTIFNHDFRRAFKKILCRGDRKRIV

[2] = molecular target: 3',5'-cyclic-AMP phosphodiesterase 4A (Homo sapiens, UniProt P27815); type: functional
[3] = molecular target: Vascular endothelial growth factor receptor 2 (Homo sapiens, UniProt P35968); type: functional
[4] = molecular target: T2, Muscarinic acetylcholine receptor M2 (Homo sapiens, UniProt P08172)
T2 sequence (P08172 whole entry): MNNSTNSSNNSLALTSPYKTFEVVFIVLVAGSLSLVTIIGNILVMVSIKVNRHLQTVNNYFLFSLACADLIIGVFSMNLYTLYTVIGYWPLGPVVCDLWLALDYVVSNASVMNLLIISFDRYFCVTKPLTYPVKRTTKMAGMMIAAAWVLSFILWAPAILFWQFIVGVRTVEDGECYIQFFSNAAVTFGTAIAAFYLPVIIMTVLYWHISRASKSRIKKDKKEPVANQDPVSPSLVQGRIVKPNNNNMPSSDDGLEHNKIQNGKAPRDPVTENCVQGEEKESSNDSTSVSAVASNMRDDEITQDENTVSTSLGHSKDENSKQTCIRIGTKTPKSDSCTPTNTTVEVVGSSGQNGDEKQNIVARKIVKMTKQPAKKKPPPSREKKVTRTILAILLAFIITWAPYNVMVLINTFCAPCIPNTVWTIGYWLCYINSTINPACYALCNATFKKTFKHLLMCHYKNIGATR

Thromboxane A2 receptor = molecular target: T3, Thromboxane A2 receptor (Homo sapiens, UniProt P21731); type: functional, cell-based
T3 sequence (P21731 whole entry): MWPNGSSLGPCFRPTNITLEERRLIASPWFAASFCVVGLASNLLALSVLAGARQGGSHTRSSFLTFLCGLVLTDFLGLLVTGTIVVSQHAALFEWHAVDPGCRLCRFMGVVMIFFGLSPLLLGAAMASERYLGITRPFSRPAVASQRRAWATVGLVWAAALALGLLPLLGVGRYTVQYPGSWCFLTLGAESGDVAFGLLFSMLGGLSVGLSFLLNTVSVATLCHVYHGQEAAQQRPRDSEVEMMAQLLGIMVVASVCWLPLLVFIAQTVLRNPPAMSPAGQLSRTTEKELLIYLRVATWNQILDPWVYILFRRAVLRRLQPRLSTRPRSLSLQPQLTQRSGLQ

[5] = molecular target: T4, Alpha-1A adrenergic receptor (Homo sapiens, UniProt P35348); type: functional, cell-based
T4 sequence (P35348 whole entry): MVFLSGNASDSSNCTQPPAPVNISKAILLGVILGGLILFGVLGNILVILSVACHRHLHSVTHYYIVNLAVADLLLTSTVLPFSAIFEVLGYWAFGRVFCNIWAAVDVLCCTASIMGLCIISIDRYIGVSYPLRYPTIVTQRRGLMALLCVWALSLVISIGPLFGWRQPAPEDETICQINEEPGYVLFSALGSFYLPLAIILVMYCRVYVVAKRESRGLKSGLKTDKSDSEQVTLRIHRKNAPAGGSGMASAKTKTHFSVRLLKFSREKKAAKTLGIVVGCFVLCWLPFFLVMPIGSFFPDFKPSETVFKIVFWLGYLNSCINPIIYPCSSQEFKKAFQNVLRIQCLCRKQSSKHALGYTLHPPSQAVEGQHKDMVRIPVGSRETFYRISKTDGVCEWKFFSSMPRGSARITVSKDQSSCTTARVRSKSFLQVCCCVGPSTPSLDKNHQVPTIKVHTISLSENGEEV

[6] = molecular target: Prostaglandin G/H synthase 1 (Homo sapiens, UniProt P23219); type: functional
Mu-type opioid receptor = Mu-type opioid receptor (Homo sapiens, UniProt P35372)
[7] = molecular target: Sodium-dependent noradrenaline transporter (Homo sapiens, UniProt P23975)
[8] = molecular target: Sodium-dependent serotonin transporter (Homo sapiens, UniProt P31645)
[9] = molecular target: T5, Muscarinic acetylcholine receptor M1 (Homo sapiens, UniProt P11229); type: functional, cell-based
T5 sequence (P11229 whole entry): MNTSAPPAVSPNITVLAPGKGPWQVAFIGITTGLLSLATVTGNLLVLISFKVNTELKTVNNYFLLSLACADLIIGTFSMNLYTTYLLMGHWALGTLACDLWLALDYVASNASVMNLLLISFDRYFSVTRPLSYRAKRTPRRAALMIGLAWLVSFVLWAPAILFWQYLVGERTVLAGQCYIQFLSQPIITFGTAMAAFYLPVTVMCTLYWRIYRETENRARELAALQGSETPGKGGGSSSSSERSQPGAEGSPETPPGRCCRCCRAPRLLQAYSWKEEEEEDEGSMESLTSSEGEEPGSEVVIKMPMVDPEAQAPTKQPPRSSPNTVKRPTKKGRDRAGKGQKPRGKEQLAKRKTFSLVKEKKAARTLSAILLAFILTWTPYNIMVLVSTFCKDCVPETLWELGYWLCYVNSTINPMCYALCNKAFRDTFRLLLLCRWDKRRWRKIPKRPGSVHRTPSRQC

[10] = molecular target: T5, Muscarinic acetylcholine receptor M1; type: functional, cell-based; remark: listed apart in the source
Note: assay procedure not described here.

Chain of Sodium-dependent serotonin transporter (P31645 whole entry): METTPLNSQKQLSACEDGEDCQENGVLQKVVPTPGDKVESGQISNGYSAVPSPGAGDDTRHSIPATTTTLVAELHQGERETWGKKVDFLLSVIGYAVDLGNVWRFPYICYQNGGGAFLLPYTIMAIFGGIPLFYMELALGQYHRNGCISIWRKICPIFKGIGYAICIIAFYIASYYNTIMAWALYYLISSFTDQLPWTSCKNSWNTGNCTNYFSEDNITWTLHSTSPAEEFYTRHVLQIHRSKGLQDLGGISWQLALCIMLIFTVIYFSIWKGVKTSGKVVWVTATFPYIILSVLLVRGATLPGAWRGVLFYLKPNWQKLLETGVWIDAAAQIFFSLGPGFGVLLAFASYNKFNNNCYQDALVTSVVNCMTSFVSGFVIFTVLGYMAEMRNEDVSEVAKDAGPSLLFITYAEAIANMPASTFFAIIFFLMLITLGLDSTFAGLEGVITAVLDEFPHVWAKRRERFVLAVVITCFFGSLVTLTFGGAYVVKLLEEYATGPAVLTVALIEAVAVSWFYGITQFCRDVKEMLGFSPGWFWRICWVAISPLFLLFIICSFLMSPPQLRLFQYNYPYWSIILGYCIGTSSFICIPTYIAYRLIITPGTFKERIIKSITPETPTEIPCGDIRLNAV
Chain of Vascular endothelial growth factor receptor 2 (P35968 whole entry): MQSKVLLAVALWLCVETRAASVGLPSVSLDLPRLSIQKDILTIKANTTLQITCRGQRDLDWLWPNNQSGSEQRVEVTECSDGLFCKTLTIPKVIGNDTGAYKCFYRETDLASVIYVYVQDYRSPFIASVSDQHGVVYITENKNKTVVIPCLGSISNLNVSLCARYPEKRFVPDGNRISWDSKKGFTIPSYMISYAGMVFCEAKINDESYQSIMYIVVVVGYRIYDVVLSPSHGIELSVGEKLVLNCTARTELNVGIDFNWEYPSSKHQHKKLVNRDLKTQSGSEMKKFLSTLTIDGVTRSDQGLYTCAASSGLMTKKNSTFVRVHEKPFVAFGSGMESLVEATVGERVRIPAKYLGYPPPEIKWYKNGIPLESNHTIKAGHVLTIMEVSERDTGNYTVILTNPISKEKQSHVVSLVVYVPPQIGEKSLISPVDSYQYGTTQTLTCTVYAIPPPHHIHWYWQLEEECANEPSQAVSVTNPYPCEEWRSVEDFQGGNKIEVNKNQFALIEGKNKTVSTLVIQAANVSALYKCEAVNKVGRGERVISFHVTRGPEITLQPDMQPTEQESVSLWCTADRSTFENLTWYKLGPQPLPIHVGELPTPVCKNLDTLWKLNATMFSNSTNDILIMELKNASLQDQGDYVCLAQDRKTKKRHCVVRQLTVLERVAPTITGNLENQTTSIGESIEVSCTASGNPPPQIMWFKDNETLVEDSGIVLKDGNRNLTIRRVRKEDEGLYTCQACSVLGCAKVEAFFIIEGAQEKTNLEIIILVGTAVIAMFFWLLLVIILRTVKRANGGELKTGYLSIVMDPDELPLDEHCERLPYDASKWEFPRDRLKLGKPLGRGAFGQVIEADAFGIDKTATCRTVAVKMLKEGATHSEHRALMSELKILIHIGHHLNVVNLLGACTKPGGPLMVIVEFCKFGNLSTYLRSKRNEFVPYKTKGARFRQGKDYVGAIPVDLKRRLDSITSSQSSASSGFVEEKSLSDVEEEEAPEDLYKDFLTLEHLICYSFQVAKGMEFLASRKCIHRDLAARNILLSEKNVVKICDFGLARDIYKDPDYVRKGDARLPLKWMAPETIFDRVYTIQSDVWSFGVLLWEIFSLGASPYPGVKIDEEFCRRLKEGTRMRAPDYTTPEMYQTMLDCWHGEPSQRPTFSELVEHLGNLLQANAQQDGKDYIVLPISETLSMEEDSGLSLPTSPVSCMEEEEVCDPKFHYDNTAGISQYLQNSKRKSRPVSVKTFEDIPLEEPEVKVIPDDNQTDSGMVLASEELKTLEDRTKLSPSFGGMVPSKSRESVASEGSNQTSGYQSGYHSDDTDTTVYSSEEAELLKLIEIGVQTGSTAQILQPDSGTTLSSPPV
Chain of Mu-type opioid receptor (P35372 whole entry): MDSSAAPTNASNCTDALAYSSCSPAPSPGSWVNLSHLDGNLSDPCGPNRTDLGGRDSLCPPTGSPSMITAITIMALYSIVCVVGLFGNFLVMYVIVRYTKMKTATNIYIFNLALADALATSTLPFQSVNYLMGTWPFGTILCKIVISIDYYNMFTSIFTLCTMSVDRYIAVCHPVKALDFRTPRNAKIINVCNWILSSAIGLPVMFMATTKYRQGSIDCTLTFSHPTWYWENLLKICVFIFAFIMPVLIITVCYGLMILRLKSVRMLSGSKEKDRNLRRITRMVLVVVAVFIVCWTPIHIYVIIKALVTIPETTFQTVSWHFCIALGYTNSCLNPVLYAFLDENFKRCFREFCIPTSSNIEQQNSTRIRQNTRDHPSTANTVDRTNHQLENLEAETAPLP
Chain of Prostaglandin G/H synthase 1 (P23219 whole entry): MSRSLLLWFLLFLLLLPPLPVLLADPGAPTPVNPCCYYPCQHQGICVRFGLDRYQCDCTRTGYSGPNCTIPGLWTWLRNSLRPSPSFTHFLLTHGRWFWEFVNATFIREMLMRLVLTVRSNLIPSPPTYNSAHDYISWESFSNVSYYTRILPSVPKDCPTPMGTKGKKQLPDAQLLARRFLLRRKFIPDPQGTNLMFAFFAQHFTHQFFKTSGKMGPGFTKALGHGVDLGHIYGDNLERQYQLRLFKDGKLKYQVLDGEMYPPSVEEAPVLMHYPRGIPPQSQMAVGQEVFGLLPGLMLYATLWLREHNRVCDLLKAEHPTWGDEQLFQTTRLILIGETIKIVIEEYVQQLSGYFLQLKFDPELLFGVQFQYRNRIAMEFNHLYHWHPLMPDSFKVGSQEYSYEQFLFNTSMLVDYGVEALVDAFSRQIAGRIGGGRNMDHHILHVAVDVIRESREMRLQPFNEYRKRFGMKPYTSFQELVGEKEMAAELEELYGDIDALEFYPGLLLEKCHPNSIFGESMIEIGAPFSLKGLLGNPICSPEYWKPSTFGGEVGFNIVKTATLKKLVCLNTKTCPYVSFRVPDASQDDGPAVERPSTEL
Chain of Sodium-dependent noradrenaline transporter (P23975 whole entry): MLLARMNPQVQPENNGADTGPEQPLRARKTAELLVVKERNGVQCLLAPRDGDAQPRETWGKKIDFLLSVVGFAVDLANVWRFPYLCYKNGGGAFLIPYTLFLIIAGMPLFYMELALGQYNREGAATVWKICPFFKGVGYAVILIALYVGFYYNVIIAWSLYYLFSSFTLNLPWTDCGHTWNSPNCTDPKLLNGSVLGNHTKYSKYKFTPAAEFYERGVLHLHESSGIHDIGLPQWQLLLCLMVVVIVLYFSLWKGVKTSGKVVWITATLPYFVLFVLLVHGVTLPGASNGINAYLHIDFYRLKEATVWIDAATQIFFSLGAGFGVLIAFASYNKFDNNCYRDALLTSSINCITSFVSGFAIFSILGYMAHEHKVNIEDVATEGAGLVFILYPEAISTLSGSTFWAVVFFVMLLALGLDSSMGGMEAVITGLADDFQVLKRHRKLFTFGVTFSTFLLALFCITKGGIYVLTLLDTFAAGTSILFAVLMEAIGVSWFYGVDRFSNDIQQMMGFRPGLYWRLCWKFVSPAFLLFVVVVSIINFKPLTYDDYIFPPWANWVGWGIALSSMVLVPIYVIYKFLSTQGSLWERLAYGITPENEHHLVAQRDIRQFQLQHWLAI
Chain of 3',5'-cyclic-AMP phosphodiesterase 4A (P27815 whole entry): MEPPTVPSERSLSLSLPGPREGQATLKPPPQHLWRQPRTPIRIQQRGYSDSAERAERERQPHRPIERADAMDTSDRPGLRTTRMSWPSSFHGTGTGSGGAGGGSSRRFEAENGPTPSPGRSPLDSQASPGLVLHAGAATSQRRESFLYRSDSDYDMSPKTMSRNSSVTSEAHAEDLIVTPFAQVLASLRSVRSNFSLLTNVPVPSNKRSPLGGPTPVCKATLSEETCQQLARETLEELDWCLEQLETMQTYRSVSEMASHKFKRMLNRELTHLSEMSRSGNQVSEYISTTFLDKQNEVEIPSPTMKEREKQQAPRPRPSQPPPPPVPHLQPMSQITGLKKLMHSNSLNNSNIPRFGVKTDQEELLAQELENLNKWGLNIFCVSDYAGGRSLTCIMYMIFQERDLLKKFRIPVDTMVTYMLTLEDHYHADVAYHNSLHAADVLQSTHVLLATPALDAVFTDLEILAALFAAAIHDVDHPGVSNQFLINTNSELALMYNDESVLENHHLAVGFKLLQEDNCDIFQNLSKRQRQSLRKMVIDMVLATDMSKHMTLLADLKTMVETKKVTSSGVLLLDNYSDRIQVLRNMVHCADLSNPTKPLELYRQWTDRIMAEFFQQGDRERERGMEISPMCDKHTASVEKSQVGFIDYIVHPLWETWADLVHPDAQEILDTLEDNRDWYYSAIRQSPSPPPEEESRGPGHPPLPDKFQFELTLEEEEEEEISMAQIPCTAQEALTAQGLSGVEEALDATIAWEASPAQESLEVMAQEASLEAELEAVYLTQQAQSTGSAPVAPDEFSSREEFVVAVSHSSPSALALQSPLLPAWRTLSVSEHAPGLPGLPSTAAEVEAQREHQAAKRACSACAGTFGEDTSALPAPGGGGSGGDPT

| SMILES | AC50 [1] [µM] | AC50 [2] [µM] | AC50 [3] [µM] | AC50 [4] [µM] | AC50 (Thromboxane A2 receptor) [µM] | AC50 [5] [µM] | AC50 [6] [µM] | AC50 (Mu-type opioid receptor) [µM] | AC50 [7] [µM] | AC50 [8] [µM] | AC50 [9] [µM] | AC50 [10] [µM] |
| --- | --- | --- | --- | --- | --- | --- | --- | --- | --- | --- | --- | --- |
| COc1cc2c3cc1Oc1cc(ccc1O)C[C@@H]1c4c(cc(OC)c(O)c4Oc4ccc(cc4)C[C@@H]3N(C)CC2)CC[N+]1(C)C [TUBOCURARINE] | > 30 | > 30 | > 30 | > 30 | > 30 | > 30 | > 30 | 24.1 | > 30 |  |  |  |
| C=CCCCCCCCCC(=O)O [UNDECYLENIC ACID] | > 30 | > 30 |  | > 30 | > 30 |  | > 30 | > 30 | > 30 | > 30 |  |  |
| O=c1[nH]c(=O)n([C@H]2C[C@H](O)[C@@H](CO)O2)cc1F [FLOXURIDINE] | > 30 | > 30 | > 30 | > 30 | > 30 | > 30 | > 30 | > 30 | > 30 |  |  |  |
| Cc1oc(=O)oc1CN1CCN(c2cc3c(cc2F)c(=O)c(C(=O)O)c2n3C(C)S2)CC1 (stereo not drawn) [PRULIFLOXACIN] | > 30 | > 30 |  | > 30 | > 30 |  | > 30 | > 30 | > 30 | > 30 |  |  |
| Cc1cc(C)c(NC(=O)CN(CC(=O)O)CC(=O)O)c(C)c1Br [MEBROFENIN] | > 30 | > 30 |  | > 30 | > 30 |  | > 30 | > 30 | > 30 | > 30 |  |  |
| CC[C@H]1CN2CCc3cc(OC)c(OC)cc3[C@@H]2C[C@@H]1C[C@H]1NCCc2cc(OC)c(OC)cc21 [EMETINE] | 0.09 | > 30 |  | > 30 | > 30 |  | > 30 | 5.99 | > 30 |  |  |  |
| Clc1cc(Cl)c(OCC#CI)cc1Cl [HALOPROGIN] | 17.7 | > 30 | > 30 | > 30 | > 30 | > 30 | > 30 | 12.3 | 5.12 |  |  |  |
| CCOc1ccccc1OCC1CNCCO1 (stereo not drawn) [VILOXAZINE] | > 30 | > 30 | > 30 | > 30 | > 30 | > 30 | > 30 | > 30 | 0.362 |  | > 30 | > 30 |
| O=c1[nH]c(=O)n([C@H]2C[C@H](O)[C@@H](CO)O2)cc1I [IDOXURIDINE] | > 30 | > 30 | > 30 | > 30 | > 30 | > 30 | > 30 | > 30 | > 30 |  |  |  |
